Legend:
Calu-6 = experiment: IC50 of the PI3K inhibitor drug (GDC0941) versus activated PI3K levels, Calu-6; assay type: cell-based, human; settings: Calu-6, two more alterations (multiple mutations and PI3K activation)
Excerpt: (§1) FIG. 13 illustrates that the CEER assay can be used to calculate the IC50 of an anti-cancer drug relative to the level of activated PI3K and other downstream components of the HER1/HER2/cMET pathway. […] In some cancer cells inhibition of PI3K activation corresponds to inhibition of activation of downstream proteins. In addition the extent of the inhibition is specific to the cell line and the inhibitor treatment.
(§2) The relationship between the IC50 of the PI3K inhibitor drug (GDC0941) and activated PI3K levels was analyzed in several cell lines. It was determined that cell lines (e.g., H1651 or H2087) with PI3K activation have low IC50. H1651 cells carry no known genetic mutations but have high EGFR expression. H2087 has NRAS and BRAF mutations. Cell lines (e.g., Calu-6) with two more alterations such as multiple mutations (e.g., MAPK mutations) and PI3K activation had high IC50 values. Thus, phospho-PI3K can be an indicator or predictor of sensitivity to PI3K inhibitors.

[1] = system: cell lines with inactive PTEN; experiment: IC50 of the PI3K inhibitor in cell lines by PTEN status (FIG. 14); assay type: cell-based, human; settings: cell lines with inactive PTEN (point mutation or null mutation)
Procedure: as §2

H1651 = experiment: IC50 of the PI3K inhibitor drug (GDC0941) versus activated PI3K levels, H1651; assay type: cell-based, human; settings: H1651, cell line with PI3K activation
Excerpt: as §1, §2

H2087 = experiment: IC50 of the PI3K inhibitor drug (GDC0941) versus activated PI3K levels, H2087; assay type: cell-based, human; settings: H2087, cell line with PI3K activation
Excerpt: as §1, §2

[2] = system: Stage III triple negative breast cancer; experiment: Clinical response of patients with triple negative breast cancer to combination therapy; assay type: in vivo, human; settings: Patient #4; combination therapy of Herceptin and Lapatinib
Excerpt: Patient #4 represents a patient diagnosed with Stage III triple negative breast cancer (e.g., ER-, PR-, HER2-). The patient underwent radical mastectomy.
Patient #5 represents a patient diagnosed with Stage III triple negative breast cancer (e.g., ER-, PR-, HER2-). The patient underwent radical mastectomy.

[3] = system: PI3K, HER2 and IGF1R activation; experiment: CEER pathway profile of Patient #5 samples before and after treatment; assay type: in vivo, human; settings: Patient #5, after treatment vs baseline
Excerpt: The samples were cerebrospinal fluid (CSF), fine needle aspirate (FNA) and a biopsy.

H1975 cells = experiment: CEER pathway profiling of H1975 cells after PI3K inhibitor, MEK inhibitor or combination treatment; assay type: cell-based, human; settings: for levels of activated PI3K: H1975 cells treated with either PI3K inhibitor, MEK inhibitor, or combinations; for levels of other activated proteins (p-MEK, p-ERK, p-AKT, p-PRAS40, p-70S6K, and p-RPS6): H1975 cells, in response to treatment
Procedure: (§3) In one particular embodiment, the proximity assay (e.g., CEER) for detecting the activation level or status of an analyte of interest comprises: • (i) incubating the cellular extract with one or a plurality of dilution series of capture antibodies to form a plurality of captured analytes; • (ii) incubating the plurality of captured analytes with detection antibodies comprising one or a plurality of activation state-independent antibodies and one or a plurality of activation state-dependent antibodies specific for the corresponding analytes to form a plurality of detectable captured analytes, • wherein the activation state-independent antibodies are labeled with a facilitating moiety, the activation state-dependent antibodies are labeled with a first member of a signal amplification pair, and the facilitating moiety generates an oxidizing agent which channels to and reacts with the first member of the signal amplification pair; • (iii) incubating the plurality of detectable captured analytes with a second member of the signal amplification pair to generate an amplified signal; and • (iv) detecting the amplified signal generated from the first and second members of the signal amplification pair.
The levels of other downstream signaling components of the pathway were measured, including HER1, HER2, cMET, PI3K, AKT, ERK, PTEN, MEK, p70S6K, PRAS40, RPS6 and PDK. Cell lines derived from non-small cell lung cancer such as NCI-H460, NCI-H647, NCI-H1155, NCI-1299, NCI-1975, NCI-H2228, and NCI-H661 were also used. The different therapies tested included a PI3K inhibitor alone at low or high dose, a MEK inhibitor alone at low or high dose, and a PI3K inhibitor plus a MEK inhibitor together at low dose or high dose. The cells were assayed at either 4 hours after treatment or 24 hours (see, * in FIGS. 6-10) after treatment.

cell line H460 = experiment: CEER pathway profiling of cell line H460 after PI3K inhibitor, MEK inhibitor or combination treatment; assay type: cell-based, human; settings: PI3K inhibitor alone or in combination with a MEK inhibitor, day 8, 9, 12, 13, 4 hours or 24 hours of drug exposure
Procedure: as §3
The levels of other downstream signaling components of the pathway were measured, including HER1, HER2, cMET, PI3K, AKT, ERK, PTEN, MEK, p70S6K, PRAS40, RPS6 and PDK. […]

PI3K = experiment: CEER profile of FNA sample of Patient #3 after PI3K inhibitor treatment; assay type: in vivo, human; settings: Patient #3, FNA sample after treatment; confirmed by CT scan
Procedure: In a retrospective study, a series of samples taken from patients with cancer were evaluated to determine if pathway profiling using the CEER assay is predictive of responsiveness to PI3K treatment. Samples analyzed included those from patients on a therapy time course, e.g., prior to receiving therapy, after initiating therapy, and during the course of therapy.
Following treatment with the PI3K inhibitor drug BAY806946, another sample was taken and analyzed. […] This finding was confirmed by CT scan.

PI3K-related pathways = experiment: CEER-based analysis of BCA clinical samples from patients treated with BYL719; assay type: in vivo, human
Procedure: CEER analysis includes normalizing the measured expression/activation levels of signaling transduction analytes against standard controls using statistical algorithms. In particular, Relative Fluorescence Unit (RFU) values are converted to Computed Units (CU), a standard functional unit of measure based on cell line controls with known levels of analyte expression. For each slide of the CEER assay, a standard curve of serial diluted cell lysate is prepared for a particular analyte-positive cell line (e.g., HER1-positive cell line is MDA-MB-468; HER2-positive cell line is SKBr3). Thus, normalized levels of each particular analyte and the degree of phosphorylation in each sample can be obtained against standard cell lines.
This example illustrates a CEER-based analysis of BCA clinical samples from patients treated with a PI3K inhibitor, BYL719 (Novartis). In particular, signaling pathway profiles from individual patients are shown to shift during the course of BYL719 treatment. Therefore, CEER-based analysis of PI3K-related pathways allows for responsive, individualized management of BYL719 treatment to improve clinical outcomes. Oncogenic receptor tyrosine kinases (HER1, HER2, HER3, cMET, IGF-1R, and cKIT) were quantified, as well as PI3K and other tyrosine kinase signaling cascade components including SHC, AKT, ERK, MEK, RSK, pRAS 40, RPS6, P70S6K, and PTEN. Levels of total protein and activated protein were measured.

## CS(=O)(=O)N1CCN(Cc2cc3nc(-c4cccc5[nH]ncc45)nc(N4CCOCC4)c3s2)CC1 [GDC0941]
Calu-6
  IC50: high
[1]
  IC50 values compared with cell lines with PTEN wild-type status: higher
H1651
  IC50: low
H2087
  IC50: low

## CS(=O)(=O)CCNCc1ccc(-c2ccc3ncnc(Nc4ccc(OCc5cccc(F)c5)c(Cl)c4)c3c2)o1 [Lapatinib, lapatinib]
[2]
  response to treatment: responded to treatment
[3]
  PI3K activation as well as HER2 and IGF1R activation: decreased

## COc1c(OCCCN2CCOCC2)ccc2c1N=C(NC(=O)c1cnc(N)nc1)N1CCN=C21.Cl.Cl [BAY841236]
H1975 cells
  levels of activated PI3K: relatively similar
  levels of other activated proteins (p-MEK, p-ERK, p-AKT, p-PRAS40, p-70S6K, and p-RPS6): greatly lower
Cell line H460
  activated proteins of the HER1/HER2/cMET pathway (p-PI3K, p-AKT, p-PRAS40, p-70S6K, and p-RPS6): downregulated

## COc1c(OCCCN2CCOCC2)ccc2c1N=C(NC(=O)c1cnc(N)nc1)N1CCN=C21 [BAY806946]
PI3K
  PI3K driven cell proliferation: successfully inhibited

## Cc1nc(NC(=O)N2CCC[C@H]2C(N)=O)sc1-c1ccnc(C(C)(C)C(F)(F)F)c1 [BYL719]
PI3K-related pathways; Patient 1, Day 8 of treatment
  level of activated HER3: increased
  p-AKT, p-pPRAS, p-P70S6, and p-RPS6: downregulation
  total HER3 expression: increased
PI3K-related pathways; Patient 1, Day 28 of treatment
  HER3 expression and activation: higher than at Day 8
  p-AKT, p-PRAS, p-P70S6 and p-RPS6 levels: higher than at Day 8
PI3K-related pathways; Patient 1, course of treatment
  activation of PRAS40: initial decrease in activation of PRAS40 was observed, followed by an increase
PI3K-related pathways; Patient 1, upon treatment
  activation of AKT: decreased
  activation of HER3, ERK, MEK, and RSK: increased
PI3K-related pathways; Patient 2, Day 8 of treatment
  p-AKT and p-PRAS: downregulated
  p-MEK, p-ERK, and p-RSK: upregulated
PI3K-related pathways; Patient 2, Day 28
  p-AKT, p-PRAS, p-MEK, p-ERK, and p-RSK: down-regulated
PI3K-related pathways; Patient 2, course of treatment
  activation of ERK, MEK, and RSK: initial increase, followed by a decrease
PI3K-related pathways; Patient 2, upon treatment
  activation of AKT and PRAS40: decrease
PI3K-related pathways; Patient 3, Day 8
  activated HER1: upregulated
  activated HER2, HER3 and cMET: down-regulated
  levels of p-AKT, p-PRAS, p-MEK, p-ERK and p-RSK: downregulated
PI3K-related pathways; Patient 3, upon treatment
  RTK activation: general decrease
PI3K-related pathways; Patient 4
  PRAS40 activation: decrease
PI3K-related pathways; Patient 4, Day 8
  p-AKT, p-PRAS, p-MEK, p-ERK, and p-RSK: downregulation
PI3K-related pathways; Patient 5
  PRAS40 activation: decrease
PI3K-related pathways; Patient 5, Day 8 of therapy
  p-MEK, p-ERK and p-RSK levels: Little change
PI3K-related pathways; Patient 5, on therapy
  P-AKT and p-RAS: slightly upregulated
  p-RPS6: highly upregulated

## COc1cc(F)c(F)c(Nc2ccc(I)cc2F)c1NS(=O)(=O)C1(C[C@H](O)CO)CC1 [BAY869766]
H1975 cells
  levels of activated PI3K: relatively similar
  levels of other activated proteins (p-MEK, p-ERK, p-AKT, p-PRAS40, p-70S6K, and p-RPS6): greatly lower

Reference: patent US20140273006A1, “METHOD OF THERAPY SELECTION FOR PATIENTS WITH CANCER” (NESTEC S.A., priority 2011, published 2014)
